Laboratory results from patent publication US8188218B2, “Bi-functional peptides for multiple sclerosis treatment and diagnosis” (priority 2006, dated 2012).
Like-named read-outs stand apart in the source and are kept apart here. Numbered stars: 1 amine (or outer) side, 2 acyl side, 3 side chain; on linkers, the order of the positions; unused ones are H or OH. Square brackets hold non-standard residues; d marks the D form. Ends that are not written are not given here. Peptide text beside a SMILES is read from it. Eb = biotinyl-PEG-Glu: N-γ-(N-biotinyl-3-(2-(2-(3-aminopropyloxy)-ethoxy)-ethoxy)-propyl)-L-glutamine, O=C(CCCC[C@@H]1SC[C@@H]2NC(=O)N[C@@H]21)NCCCOCCOCCOCCCNC(=O)CC[C@H](N[*:1])C(=O)[*:2]; Ahx = NCCCCCC(=O)O

Tests used:
[1] = tested on: EAE mouse model (SJL/J female mice immunized with PLP/CFA); assay type: in vivo; details: for number of animals that died, Day 10 / number of animals that died, Day 11 / number of animals that died, Day 14 / number of animals that died, Total: 10 mice/group; for toxicity (conclusion from mortality, in words): mouse, in vivo
Method: To evaluate the in vivo activity of these molecules, SJL/J female mice at 6-8 weeks of age (Jackson Laboratory, Bar Harbor, Me.) were divided into six groups with ten mice in each group. At the initiation state (Day 0), all mice (10/group) were immunized by subcutaneous (s.c.) inoculation with 200 μg of PLP in a 0.2 mL emulsion with equal volumes of phosphate buffered saline (“PBS”) and complete Freund's adjuvant (“CFA”) (Difco, Detroit, Mich.). To enhance immunization with antigen, killed Mycobacterium tuberculosis strain H37RA (Difco) was added to the emulsion at a concentration of 4 mg/mL and administered to regions above the shoulder and the flanks. The injection volume was 50 μL at each injection site. In addition, 200 ng of pertussis toxin (List Biological Laboratories, Campbell, Calif.) was injected intraperitoneally (i.p.) on the day of immunization and 48 hours post-immunization. The onset of disease was on day 8 to day 12 post-immunization. Then, each mouse in Groups 1-4 received intravenous (i.v.) injections of 100 nmole/100 μL of the test peptides (PLP-BPI, PLP139-151, OVA-BPI, LABL) on days 4, 7, 10 and 14. Group 5 animals were injected with PBS on days 4, 7, 10 and 14. Group 6 animals received one i.p. injection of 500 μg PLPL,R on day 7.
All of the immunized mice were scored blindly 5-6 days/week by the same observer. Mean daily clinical scores were calculated by adding the grades of each mouse individually divided by the number of mice in each group. All animals were observed daily and, upon signs of paralysis and weakness, gel food and Napa nectar were provided to the animals to prevent dehydration. Saline was injected (s.c.) if a weight loss of 10% was observed within a 24-hour period. Body weight and disease scoring started at the onset of the disease (day 8). The measurements were continued daily (5 to 6 days/week) until the end of the disease.
The statistical analyses of the EAE scores and EAE incidence were done using Mann-Whitney U test and Kaplan-Meier analysis, respectively. The comparison was done between the peptide-treated mice (Groups 1, 2, 3, 4, and 6) and the control group (Group 5) at day 14 post-immunization.

PLP/CFA-immunized mice = assay: Anaphylaxis incidence after re-injection of the peptide at day 30
[2] = tested on: PLP/CFA-immunized female SJL/J mice; assay: Anaphylaxis incidence after injection of the peptide at later phase of disease; assay type: in vivo, mouse
Description: The less incidence of inducing anaphylactic shock by BPI molecules was further examined. Female SJL/J mice were immunized with PLP/CFA as above, and injected intravenously with PLP or BPI molecules (100 nmol/mouse) at later phase of the disease (i.e., between day 28 and day 35). […] This was confirmed in another set of experiment, PLP-BPI induced anaphylaxis to 38.5% of treated mice while PLP caused anaphylaxis to more than 80% of treated mice (Table 9, Experiment II). In addition, 100% of mice that were injected with unlinked mixture of PLP and LABL (100 nmol each) died due to anaphylaxis. […] Taken together, BPI molecules (including PLP-BPI and Ac-PLP-BPI-NH2) could suppress EAE more efficiently with lower incidence of inducing anaphylaxis than PLP.

EAE mouse model = assay: EAE mouse model, PLP-BPI vs mixture of PLP and LABL and VP2-BPI (Example 4); assay type: in vivo
Description: To evaluate whether linking PLP and LABL peptides to give PLP-BPI has a significant role on its immunomodulatory activity, the activity of PLP-BPI was compared with that of a mixture of unlinked PLP and LABL peptides at the same concentration. To answer whether any antigenic peptide such as VP2 peptide that is linked to LABL peptide to give VP2-BPI will have immunomodulatory activity similar to that of PLP-BPI, we evaluated the activity of VP2-BPI in the same experiment. VP274-86 is an epitope peptide of Theiler's encephalomyelitis virus capsid protein VP2, and is known to bind to I-A^s. PBS-treated mice were used as the negative control. The experimental protocol was the same as in the previous study (see FIG. 1). Thus, VP2-BPI was used as a control to example to see if the PLP portion of the PLP-BPI is important to therapeutic activity.

[3] = tested on: T-cell-depleted splenocytes isolated from SJL/J female mice (EAE-induced); details: 50 μM, 16 hours at 37° C.; FIG. 11(B)
Description: Binding studies were done using mouse B-lymphocyte line LS102.9 (FIG. 11(A)) and the isolated B-cells from the spleen of female SJL/J mice after induction of EAE (FIG. 11(B)). […] For the isolated spleen cells from EAE mice, the cells were isolated from female SJL/J mice on day 45 post immunization with PLP/CFA, when the clinical disease score for the mice was 0. Lymphocytes were obtained from the spleen cell suspension by centrifugation over Lymphocyte Separation Medium. T-cells were depleted by incubation with anti-CD90 mAb (clone G7) followed by Low-tox rabbit complement. Then, the cells were centrifuged over Lymphocyte Separation Medium to remove dead cells.
For the binding study, the biotin-labeled peptide (50 μM) was incubated with LS102.9 cells or T-cell-depleted splenocytes (2×10^6 cells) in 0.5% BSA-containing PBS for 16 hours at 37° C., 5% CO2. Following washing×3 with 5% FBS-containing PBS, the cells were incubated with fluorescein Avidin D (15 μg/ml) for 30 min at 4° C. The cells were further stained with biotinylated anti-Avidin D (1 μg/ml) for 60 min at 4° C., and then fluorescein Avidin D (15 μg/ml) for 30 min at 4° C. (each step was followed by washing×3). Finally, the fluorescein intensity of the individual cells was analyzed by flow cytometry.

LS102.9 mouse B-cells = assay: Binding of biotin-labeled PLP-BPI to B-cell line, flow cytometry; assay type: cell-based; details: 50 μM, 16 hours at 37° C.; FIG. 11(A)
Description: (each step was followed by washing×3). […] The results are illustrated in FIG. 11.

[4] = peptide treatment day 4 (one), re-injection day 30
[5] = peptide treatment day 4, 7, 10, 14 (four), re-injection day 30
[6] = Experiment I, 100 nmol/mouse i.v. between day 28 and day 35
[7] = Experiment II, 100 nmol/mouse i.v. (mixture 100 nmol each)
[8] = Experiment III, 100 nmol/mouse i.v.

Compound: CC[C@H](C)[C@H](N)C(=O)N[C@H](C(=O)N[C@@H](CC(=O)O)C(=O)NCC(=O)N[C@@H](CCC(=O)O)C(=O)N[C@@H](C)C(=O)N[C@H](C(=O)N[C@@H](CC(=O)O)C(=O)N[C@@H](CO)C(=O)NCC(=O)O)[C@@H](C)O)[C@@H](C)O [LABL, ITDGEATDSG]
- number of animals that died, Day 10 [1]: 3
- number of animals that died, Day 11 [1]: 1
- number of animals that died, Day 14 [1]: 0

Compound: CC(C)C[C@H](NC(=O)[C@H](CC(C)C)NC(=O)[C@H](CCCCN)NC(=O)CNC(=O)[C@H](CC(C)C)NC(=O)[C@H](CO)NC(=O)[C@@H](N)Cc1c[nH]cn1)C(=O)NCC(=O)N[C@@H](CCCNC(=N)N)C(=O)N1CCC[C@H]1C(=O)N[C@@H](CC(=O)O)C(=O)N[C@@H](CCCCN)C(=O)N[C@@H](Cc1ccccc1)C(=O)O [PLPL,R, HSLGKLLGRPDKF] (H-HSLGKLLGRPDKF-OH)
- number of animals that died, Day 10 [1]: 0
- number of animals that died, Day 11 [1]: 5
- number of animals that died, Day 14 [1]: 1
- toxicity (conclusion from mortality, in words) [1]: severe effect (toxicity)

Compound: CC[C@H](C)[C@H](NC(=O)CCCCCNC(=O)CNC(=O)CCCCCNC(=O)CNC(=O)CCCCCNC(=O)[C@H](Cc1ccccc1)NC(=O)[C@H](CCCCN)NC(=O)[C@H](CC(=O)O)NC(=O)[C@@H]1CCCN1C(=O)[C@H](Cc1c[nH]cn1)NC(=O)CNC(=O)[C@H](CC(C)C)NC(=O)[C@H](Cc1c[nH]c2ccccc12)NC(=O)[C@H](CCCCN)NC(=O)CNC(=O)[C@H](CC(C)C)NC(=O)[C@H](CO)NC(=O)[C@@H](N)Cc1c[nH]cn1)C(=O)N[C@H](C(=O)N[C@@H](CC(=O)O)C(=O)NCC(=O)N[C@@H](CCC(=O)O)C(=O)N[C@@H](C)C(=O)N[C@H](C(=O)N[C@@H](CC(=O)O)C(=O)N[C@@H](CO)C(=O)NCC(=O)O)[C@@H](C)O)[C@@H](C)O [PLP-BPI, HSLGKWLGHPDKF-AcGAcGAc-ITDGEATDSG]
- Moribund or death (PLP/CFA-immunized mice; [4]): 3/6
- Moribund or death (PLP/CFA-immunized mice; [5]): 1/6
- number of animals that died, Day 10 [1]: 0
- number of animals that died, Day 11 [1]: 0
- number of animals that died, Day 14 [1]: 0
- toxicity (conclusion from mortality, in words) [1]: low toxicity
- Incidence of anaphylaxis [2, 6]: 35.7%
- Incidence of anaphylaxis (animals/total) [2, 6]: 5/14
- Incidence of anaphylaxis [2, 7]: 38.5%
- Incidence of anaphylaxis (animals/total) [2, 7]: 5/13

Compound: CC[C@H](C)[C@H](NC(=O)CCCCCNC(=O)CNC(=O)CCCCCNC(=O)CNC(=O)CCCCCNC(=O)[C@H](C)NC(=O)[C@H](CCC(=O)O)NC(=O)[C@H](CC(N)=O)NC(=O)[C@@H](NC(=O)[C@H](CCC(=O)O)NC(=O)[C@H](C)NC(=O)[C@H](Cc1c[nH]cn1)NC(=O)[C@H](C)NC(=O)[C@H](C)NC(=O)[C@H](Cc1c[nH]cn1)NC(=O)[C@@H](NC(=O)[C@H](C)N)C(C)C)[C@@H](C)CC)C(=O)N[C@H](C(=O)N[C@@H](CC(=O)O)C(=O)NCC(=O)N[C@@H](CCC(=O)O)C(=O)N[C@@H](C)C(=O)N[C@H](C(=O)N[C@@H](CC(=O)O)C(=O)N[C@@H](CO)C(=O)NCC(=O)O)[C@@H](C)O)[C@@H](C)O [OVA-BPI, AVHAAHAEINEA-AcGAcGAc-ITDGEATDSG]
- number of animals that died, Day 10 [1]: 0
- number of animals that died, Day 11 [1]: 0
- number of animals that died, Day 14 [1]: 2
- number of animals that died, Total [1]: 2

Compound: CC[C@H](C)[C@H](NC(=O)CCCCCNC(=O)CNC(=O)CCCCCNC(=O)CNC(=O)CCCCCNC(=O)[C@H](Cc1ccccc1)NC(=O)[C@H](CCCCN)NC(=O)[C@H](CC(=O)O)NC(=O)[C@@H]1CCCN1C(=O)[C@H](Cc1c[nH]cn1)NC(=O)CNC(=O)[C@H](CC(C)C)NC(=O)[C@H](Cc1c[nH]c2ccccc12)NC(=O)[C@H](CCCCN)NC(=O)CNC(=O)[C@H](CC(C)C)NC(=O)[C@H](CO)NC(=O)[C@H](Cc1c[nH]cn1)NC(C)=O)C(=O)N[C@H](C(=O)N[C@@H](CC(=O)O)C(=O)NCC(=O)N[C@@H](CCC(=O)O)C(=O)N[C@@H](C)C(=O)N[C@H](C(=O)N[C@@H](CC(=O)O)C(=O)N[C@@H](CO)C(=O)NCC(N)=O)[C@@H](C)O)[C@@H](C)O [Ac-PLP-BPI-NH2, Ac-HSLGKWLGHPDKF)-AcGAcGAc-ITDGEATDSG-NH2]
- Moribund or death (PLP/CFA-immunized mice; [4]): 2/6
- Moribund or death (PLP/CFA-immunized mice; [5]): 1/6
- Incidence of anaphylaxis [2, 8]: 43.8%
- Incidence of anaphylaxis (animals/total) [2, 8]: 7/16

Compound: QEAFSHIRIPLPH-AcGAcGAc-ITDGEATDSG (QEAFSHIRIPLPH[Ahx]G[Ahx]G[Ahx]ITDGEATDSG; listed as Homo sapiens) [VP2-BPI]
- disease incidence (EAE mouse model; after day 17, FIG. 8(B)): 100%
- loss of body weight (in words) (EAE mouse model; around day 14, FIG. 8(C)): greatest in PBS-treated mice followed by VP2-BPI-treated mice

Compound: EbHSLGKWLGHPDKF-AcGAcGAc-ITDGEATDSG ([Eb]HSLGKWLGHPDKF[Ahx]G[Ahx]G[Ahx]ITDGEATDSG) [B-PLP-BPI]
- binding to B-cells from the spleen of EAE-induced mice (in words) [3]: can also bind to the B-cells from the spleen of EAE-induced mice
- binding to LS102.9 B-cell line (in words) (LS102.9 mouse B-cells): binds to LS102.9 B-cell line

Compound: CC(C)C[C@H](NC(=O)[C@H](Cc1c[nH]c2ccccc12)NC(=O)[C@H](CCCCN)NC(=O)CNC(=O)[C@H](CC(C)C)NC(=O)[C@H](CO)NC(=O)[C@@H](N)Cc1c[nH]cn1)C(=O)NCC(=O)N[C@@H](Cc1c[nH]cn1)C(=O)N1CCC[C@H]1C(=O)N[C@@H](CC(=O)O)C(=O)N[C@@H](CCCCN)C(=O)N[C@@H](Cc1ccccc1)C(=O)O [PLP, HSLGKWLGHPDKF]
- Moribund or death (PLP/CFA-immunized mice; peptide treatment None (PBS) day 4, 7, 10, 14, peptide injection day 30): 3/4
- number of animals that died, Day 10 [1]: 0
- number of animals that died, Day 11 [1]: 0
- number of animals that died, Day 14 [1]: 0
- number of animals that died, Total [1]: no animals died
- number of animals that died, Total ([1]; listed as PLP139-151): 0
- Incidence of anaphylaxis [2, 6]: 75.0%
- Incidence of anaphylaxis (animals/total) [2, 6]: 9/12
- Incidence of anaphylaxis (animals/total) [2, 7]: 11/13
- Incidence of anaphylaxis [2, 8]: 76.5%
- Incidence of anaphylaxis (animals/total) [2, 8]: 13/17
